Reference: article PMC11396062, “The n-Butanol Extract Obtained from the Inner Bark of Tabebuia rosea (Bertol.) DC, Specioside, and Catalposide Induce Leukemia Cell Apoptosis in the Presence of Apicidin” (Molecules, 2024)
In brackets after ≈: the same amount, converted by molar mass.

Assays:
[1] = test system: BCL2; assay: RT-qPCR BCL2 mRNA expression; assay type: cell-based, human; settings: THP-1, catalposide 44 μg/mL, specioside 40 μg/mL
Description: (§1) After treatment, mRNA extraction was performed using the RNeasy Plus Mini Kit (Qiagen, Germantown, MD, USA; Cat No. 74134). The mRNA was quantified with a NanoDrop 2000c (Thermo Fisher Scientific, Waltham, MA, USA). The expression of the MAPK14 (gene encoding p38), BCL2, and BAX genes was evaluated by qRT–PCR and quantified with the 2^−ΔΔCt method in the Applied Biosystems StepOnePlus Real-Time PCR System (Applied Biosystems, Foster City, CA, USA), which uses predesigned TaqMan Gene Expression Assays (codes […], Hs00608023_m1, and Hs00180269_m1, respectively) (Applied Biosystems, Foster City, CA, USA) and the TaqMan® RNA-to-CT TM 1-Step Kit (Applied Biosystems, Foster City, CA, USA, Cat No. 4392653). The reaction mixture was incubated at 48 °C for 15 min and 95 °C for 10 min and then cycled (40 cycles) at 95 °C for 15 s and 60 °C for 1 min. GAPDH was used as an endogenous control.

[2] = test system: BAX; assay: RT-qPCR BAX mRNA expression; assay type: cell-based, human; settings: THP-1, catalposide 44 and 66 μg/mL, specioside 20, 40 and 60 μg/mL
Description: as §1

[3] = test system: Peripheral blood mononuclear cells (PBMCs); assay: MTT cell viability assay, PBMC (normal cells); assay type: cell-based; settings: Homo sapiens, n = 3
Description: Jurkat and THP-1 cell lines were purchased from the American Type Culture Collection (ATCC, Rockville, MD, USA); Jurkat is a human lymphocytic cell line representing acute T-cell leukemia, and THP-1 is a monocytic cell line that represents acute myelogenous leukemia (AML). Jurkat and THP-1 cells were maintained in RPMI 1640 medium (Sigma) supplemented with 10% heat-inactivated fetal bovine serum (FBS) (Gibco Cat No. 16140071, Waltham, MA USA), 200 μg/mL penicillin, 200 μg/mL streptomycin, 400 μg/mL neomycin (GIBCO, Cat No. 15640-055), 5 μg/mL amphotericin, and 1 mM sodium pyruvate (all from Sigma Chemical Co., Saint Louis, MO, USA; Cat Nos. A9528-50 MG, M7522-100ML, and S8636-100ML, respectively). The cells were maintained at 37 °C in a humidified atmosphere with 5% CO2. The culture medium was exchanged with fresh medium every 2–3 days. Peripheral blood mononuclear cells (PBMCs) were isolated from normal human venous blood. Further, 10 milliliters of human blood was mixed with 10 mL of RPMI-1640 containing 50 µL of heparin and gradually poured over 1 mL of HISTOPAQUE®-1119 (Sigma). The plasma was removed by centrifugation at 3000 rpm for 30 min. The peripheral blood mononuclear cell-containing layer was collected with a pipette and diluted in 4 mL of PBS. PBMCs were harvested by centrifugation at 1500 rpm for 10 min at room temperature, resuspended in RPMI-1640 with 10% FBS, and incubated at 37 °C in 5% CO2 humidified air.
Cell viability was determined by measuring the mitochondrial activity of live cells via the metabolism of the tetrazolium substrate 3-(4,5-dimethylthiazol-2-yl)-2,5-diphenyl tetrazolium bromide (MTT) and converting it to purple formazan crystals. Briefly, the cells (2 × 10^4 cells/well) were treated with 25, 50, 100, 200, or 400 μg/mL extract diluted in DMSO (at a final concentration of 0.5%) and incubated for 12, 24, or 48 h. Catalposide and specioside were tested at concentrations of 20, 50, and 100 μg/mL for 12, 24, and 48 h. For apicidin, 0.5, 1, and 2 μM apicidin were tested for 24 and 48 h. Doxorubicin was used as a reference standard drug (positive control). After treatment, the medium was discarded; 200 μL of RPMI 1640 medium without phenol red containing 0.5 mg/mL MTT (Sigma Chemical Co., Saint Louis, MO, USA; Cat. No. M2128-500MG) was then added to each well. The plates were incubated for four hours at 37 °C with 5% CO2 in a humidified atmosphere. The medium was discarded, and 100 μL of DMSO was added to solubilize the formazan crystals. The absorbance was measured with an ELISA microplate reader at 492 nm (ELx800; BioTek Instruments Inc., Winooski, VT, USA). The percentage of viable cells was calculated on the basis of the nontreated control (taken as 100%). The IC50 (concentration causing a 50% reduction in cellular viability) values for all the tested compounds were evaluated in Excel using the nonlinear regression curve method. Three independent assays were performed, each in triplicate.

[4] = test system: THP-1 cells; assay: Flow cytometric apoptosis, Annexin V-CF647/7-AAD; assay type: cell-based, human; settings: THP-1, 24 h (Figure S5)
Description: In 96-well plates, 8 × 10^4 cells were treated with 25, 50, and 100 µg/mL extract and 400 µM doxorubicin (positive control) for 24 and 48 h. The cells were washed with 1X PBS, and apoptotic cells were detected by staining with 100 µL of Annexin V-CF647 and 5 µL of the 7-AAD Apoptosis Annexin Red Kit (FCCH100108 FlowCellect, Millipore, Darmstadt, Germany). The cells were incubated at room temperature for 15 min in the dark and analyzed on a Guava Millipore flow cytometer (Merck Millipore, Bedford, MA, USA) using InCyte software (version 3.1, Merck Millipore). The percentage of annexin V-positive cells was evaluated.

Row | Compound | expression of Bcl-2 mRNA with APC [1] | expression of Bax mRNA with APC pretreatment [2] | IC50 ([3]; 12 h) [µg/mL] | IC50 ([3]; 24 h) [µg/mL] | IC50 ([3]; 48 h) [µg/mL] | apoptosis compared with control [4]
1 | O=C(/C=C/c1ccc(O)cc1)O[C@H]1[C@@H]2C=CO[C@@H](O[C@@H]3O[C@H](CO)[C@@H](O)[C@H](O)[C@H]3O)[C@@H]2[C@@]2(CO)O[C@@H]12 [Specioside] | decreased | increased | 165 ± 3.1 (≈ 325 µM) | 70.7 ± 3.7 (≈ 139 µM) | 54.2 ± 3.7 (≈ 107 µM) | increased apoptosis
2 | O=C(O[C@H]1[C@@H]2C=CO[C@@H](O[C@@H]3O[C@H](CO)[C@@H](O)[C@H](O)[C@H]3O)[C@@H]2[C@@]2(CO)O[C@@H]12)c1ccc(O)cc1 [Catalposide, catalposide] | decreased | increased | 126 ± 2.8 (≈ 260 µM) | 87.7 ± 3.1 (≈ 182 µM) | 43.4 ± 3.4 (≈ 90 µM) | increased apoptosis
